US11702404B2, “GLP-1R modulating compounds” (priority 2019, dated 2023)

Legend:
GLP-1R = GLP-1R (Homo sapiens, UniProt P43220); experiment: GLP-1R activation: cAMP increase in CHO cells stably expressing GLP-1R; type: cell-based; conditions: cAMP increase, CHO cells stably expressing GLP-1R, 10 point dose response, 30 minutes incubation; read-out: EC50
[1] = Microsomal stability, human liver microsomes (predicted hepatic clearance); conditions: predicted from in vitro microsomal stability data

Chain of GLP-1R (P43220 24-463): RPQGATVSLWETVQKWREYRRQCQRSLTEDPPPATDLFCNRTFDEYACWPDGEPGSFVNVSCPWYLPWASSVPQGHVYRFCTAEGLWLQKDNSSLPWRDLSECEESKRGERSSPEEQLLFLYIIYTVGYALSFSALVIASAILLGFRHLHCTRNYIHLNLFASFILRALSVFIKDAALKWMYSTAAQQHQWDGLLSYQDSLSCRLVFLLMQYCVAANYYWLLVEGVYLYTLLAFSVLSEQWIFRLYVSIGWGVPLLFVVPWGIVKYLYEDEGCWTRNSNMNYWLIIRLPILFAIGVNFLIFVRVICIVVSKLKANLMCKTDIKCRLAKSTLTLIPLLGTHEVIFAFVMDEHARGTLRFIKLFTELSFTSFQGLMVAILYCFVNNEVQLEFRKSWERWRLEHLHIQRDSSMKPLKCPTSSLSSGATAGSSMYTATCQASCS

| Compound | EC50 (GLP-1R) [nM] | Predicted Hepatic Clearance (Pred. Cl.) [1] [mL/min/kg] |
| --- | --- | --- |
| COCCn1c(Cc2c(F)cc(-c3cccnc3OCc3cc(Cl)ccc3F)cc2F)nc2ccc(C(=O)O)cc21 [Example 408, 2-(4-(2-((5-chloro-2-fluorobenzyl)oxy)pyridin-3-yl)-2,6-difluorobenzyl)-1-(2-methoxyethyl)-1H-benzo[d]imidazole-6-carboxylic acid] | ≥ 1000 | 10.1 |
| N#Cc1ccc(COc2cccc(-c3ccc(Cc4nc5c(F)cc(C(=O)O)cc5n4Cc4ncco4)c(F)c3)n2)c(F)c1 [Example 625] | 0.63 | 2.67 |
| COCCn1c(Cc2c(F)cc(-c3cccnc3OCc3ccccc3F)cc2F)nc2ccc(C(=O)O)cc21 [Example 192, 2-(2,6-difluoro-4-(2-((2-fluorobenzyl)oxy)pyridin-3-yl)benzyl)-1-(2-methoxyethyl)-1H-benzo[d]imidazole-carboxylic acid] | 437 | 13 |
| COCCn1c(Cc2ccc(-c3cccc(OCc4ccc(C#N)cc4F)n3)cc2-c2cc[nH]n2)nc2ccc(C(=O)O)cc21 [Example 260, 2-(4-(6-((4-cyano-2-fluorobenzyl)oxy)pyridin-2-yl)-2-(1H-pyrazol-3-yl)benzyl)-1-(2-methoxyethyl)-1H-benzo[d]imidazole-6-carboxylic acid] | 113 | 10.8 |
| N#Cc1ccc(COc2nccc(-c3ccc(Cc4nc5c(F)cc(C(=O)O)cc5n4CC4(CF)CC4)c(F)c3)n2)c(F)c1 [Example 360, 2-(4-(2-((4-cyano-2-fluorobenzyl)oxy)pyrimidin-4-yl)-2-fluorobenzyl)-4-fluoro-1-((1-(fluoromethyl)cyclopropyl)methyl)-1H-benzo[d]imidazole-6-carboxylic acid] | 0.94 | <1.83 |
| N#Cc1ccc(COc2cccc(-c3ccc(Cc4nc5ccc(C(=O)O)cc5n4Cc4cscn4)c(F)c3)n2)c(F)c1 [Example 454, 2-(4-(6-((4-cyano-2-fluorobenzyl)oxy)pyridin-2-yl)-2-fluorobenzyl)-1-(thiazol-4-ylmethyl)-1H-benzo[d]imidazole-6-carboxylic acid] | 5.53 | 4.67 |
| N#Cc1ccc(COc2nc(-c3cc(F)c(Cc4nc5c(F)cc(C(=O)O)cc5n4CC4(CF)CC4)cc3F)ncc2F)c(F)c1 [Example 167, 2-(4-(4-((4-cyano-2-fluorobenzyl)oxy)-5-fluoropyrimidin-2-yl)-2,5-difluorobenzyl)-4-fluoro-1-((1-(fluoromethyl)cyclopropyl)methyl)-1H-benzo[d]imidazole-6-carboxylic acid] | 0.11 | 6 |
| N#Cc1ccc(COc2cccc(-c3ccc(Cc4nc5ccc(C(=O)O)cc5n4C[C@@H]4CCOC4)c(F)c3)n2)c(F)c1 [Example 197, (S)-2-(4-(6-((4-cyano-2-fluorobenzyl)oxy)pyridin-2-yl)-2-fluorobenzyl)-1-((tetrahydrofuran-3-yl)methyl)-1H-benzo[d]imidazole-carboxylic acid] | 7.77 | 6 |
| COc1cc(Cl)ncc1COc1cccc(-c2cc(F)c(Cc3nc4ccc(C(=O)O)cc4n3C[C@@H]3CCO3)cc2F)n1 [Example 853] | 0.15 | 9 |
| N#Cc1ccc(COc2nc(-c3cc(F)c(Cc4nc5ccc(C(=O)O)cc5n4C[C@@H]4CCO4)cc3F)ccc2F)c(F)c1 [Example 450, (S)-2-(4-(6-((4-cyano-2-fluorobenzyl)oxy)-5-fluoropyridin-2-yl)-2,5-difluorobenzyl)-1-(oxetan-2-ylmethyl)-1H-benzo[d]imidazole-6-carboxylic acid] | 0.77 | <1.83 |
| COCCn1c(Cc2ccc(-c3ccnc(OCc4ccc(C#N)cc4F)n3)cc2F)nc2ccc(C(=O)O)cc21 [Example 83, 2-(4-(2-((4-cyano-2-fluorobenzyl)oxy)pyrimidin-4-yl)-2-fluorobenzyl)-1-(2-methoxyethyl)-1H-benzo[d]imidazole-6-carboxylic acid] | 29.3 | <1.83 |
| O=C(O)c1ccc2nc(Cc3cc(F)c(-c4cccc(OCc5ccc(C(F)(F)F)cc5F)n4)cc3F)n(C[C@@H]3CCO3)c2c1 [Example 665] | 0.51 | 1.83 |
| COCCn1c(Cc2ccc(-c3cccc(OCc4cccc(OC(F)F)c4)n3)cc2F)nc2ccc(C(=O)O)cc21 [Example 505, 2-(4-(6-((3-(difluoromethoxy)benzyl)oxy)pyridin-2-yl)-2-fluorobenzyl)-1-(2-methoxyethyl)-1H-benzo[d]imidazole-6-carboxylic acid] | 41.2 | <1.83 |
| Cc1cc(-c2ccc(F)c(OCc3ccc(C#N)cc3F)n2)ccc1Cc1nc2ccc(C(=O)O)cc2n1C[C@@H]1CCO1 [Example 686] | 0.55 | 4 |
| COCCn1c(Cc2ccc(-c3cccc(OCc4csc(C#N)c4)n3)cc2F)nc2ccc(C(=O)O)cc21 [Example 235, 2-(4-(6-((5-cyanothiophen-3-yl)methoxy)pyridin-2-yl)-2-fluorobenzyl)-1-(2-methoxyethyl)-1H-benzo[d]imidazole-6-carboxylic acid] | 317 | 8.42 |
| N#CCC1(Cn2c(Cn3ccc(-c4cccc(OCc5ccc(C#N)cc5F)n4)cc3=O)nc3ccc(C(=O)O)cc32)CC1 [Example 422, 2-((6-((4-cyano-2-fluorobenzyl)oxy)-2′-oxo-[2,4′-bipyridin]-1′(2′H)-yl)methyl)-1-((1-(cyanomethyl)cyclopropyl)methyl)-1H-benzo[d]imidazole-6-carboxylic acid] | 0.87 | 2.67 |
| COCCn1c(Cc2ccc(-c3cccc(OCc4ccc(C#N)cc4F)n3)cc2F)nc2cc(C(=O)O)ccc21 [Example 553, 2-(4-(6-((4-cyano-2-fluorobenzyl)oxy)pyridin-2-yl)-2-fluorobenzyl)-1-(2-methoxyethyl)-1H-benzo[d]imidazole-5-carboxylic acid] | 19.8 | 4.17 |
| COCC1(Cn2c(Cc3ccc(-c4cccc(OCc5ccc(C#N)cc5F)n4)cc3F)nc3ccc(C(=O)O)cc32)CC1 [Example 380, 2-(4-(6-((4-cyano-2-fluorobenzyl)oxy)pyridin-2-yl)-2-fluorobenzyl)-1-((1-(methoxymethyl)cyclopropyl)methyl)-1H-benzo[d]imidazole-6-carboxylic acid] | 7.72 | <1.83 |
| N#CCCn1c(Cc2cc(F)c(-c3cccc(OCc4ccc(C#N)cc4F)n3)cc2F)nc2ccc(C(=O)O)cc21 [Example 305, 2-(4-(6-((4-cyano-2-fluorobenzyl)oxy)pyridin-2-yl)-2,5-difluorobenzyl)-1-(2-cyanoethyl)-1H-benzo[d]imidazole-6-carboxylic acid] | 1.25 | 4.67 |
| N#Cc1ccc(COc2nc(-c3cc(F)c(Cc4nc5ccc(C(=O)O)cc5n4C[C@@H]4CCO4)cc3F)ncc2F)c(F)c1 [Example 449, (S)-2-(4-(4-((4-cyano-2-fluorobenzyl)oxy)-5-fluoropyrimidin-2-yl)-2,5-difluorobenzyl)-1-(oxetan-2-ylmethyl)-1H-benzo[d]imidazole-6-carboxylic acid] | 0.17 | 4.33 |
